# Laboratory results reported in patent US9975861B2, “Dual inhibitor compounds for use in the treatment of neurodegenerative disorders and alzheimer's disease” (FONDAZIONE ISTITUTO ITALIANO DI TECNOLOGIA, priority 2014, dated 2018).
# Assays:
# [1] = tested on: primary astrocytes and microglial cells; assay: Nitrites measurement (Griess reaction) in LPS-stimulated primary glial cells; type: cell-based, rat; conditions: for reduction of LPS-induced nitrite production: compounds 10 μM for 1 hour, then LPS 10 μg/mL for 24 hours, astrocytes and microglia, potency compared with 6-amino triazinones A-C (FIGS. 2A, 2B); for nitrite production in astrocyte cells: compounds 10 μM, LPS 10 μg/mL 24 hours, astrocyte cells (FIG. 2A)
# Method: Astrocytes were prepared from neonatal (P2) rat cerebral cortex, as previously described by Luna-Medina et al. [Luna-Medina, R.; Cortes-Canteli, M.; Alonso, M.; Santos, A.; Martinez, A.; Perez-Castillo, A. Regulation of inflammatory response in neural cells in vitro by thiadiazolidinones derivatives through peroxisome proliferator-activated receptor gamma activation. J. Biol. Chem. 2005, 280, 21453-21462].
# Briefly, after removal of the meninges, the cerebral cortex was dissected, dissociated, and incubated with 0.25% trypsin/EDTA at 37° C. for 1 hour. After centrifugation, the pellet was washed 3 times with Hank's balanced salt solution (HBSS) (Gibco) and the cells were placed on noncoated flasks and maintained in HAMS/Dulbecco's modified eagle's medium (DMEM) (1:1) medium containing 10% of fetal bovine serum (FBS). After 15 days, the flasks were agitated on an orbital shaker for 4 hours at 240 rpm at 37° C., the supernatant was collected, centrifuged, and the cellular pellet containing the microglial cells resuspended in complete medium (HAMS/DMEM (1:1) containing 10% FBS) and seeded on uncoated 96-well plates. Cells were allowed to adhere for 2 hours, and the medium was removed to eliminate nonadherent oligodendrocytes. New fresh medium containing 10 ng/mL of granulocyte-macrophage colony-stimulating factor (GM-CSF) was added. The remaining astroglial cells adhered on the flasks were then trypsinized, collected, centrifugated, and plated onto 96-well plates with complete medium. The purity of cultures obtained by this procedure was >98% as determined by immunofluorescence with the OX42 (microglial marker) and the glial fibrillary acidic protein (GFAP, astroglial marker) antibodies.
# The potential anti-inflammatory activity of the selected compounds was tested by evaluating the production of nitrites from primary cultured glial cells. Primary cultures of astrocytes and microglia were incubated with the selected compounds (10 μM) for 1 hour, and then cells were cultured for another 24 hours with a potent inflammatory agent, such as lipopolysaccharide (LPS) (10 μg/mL). LPS is able to induce nitrite production and accumulation in the culture medium, which was assayed by the standard Griess reaction. Supernatants were collected from the media and mixed with an equal volume of Griess reagent (Sigma). Samples were then incubated at rt for 15 minutes and absorbance read using a plate reader at 492/540 nm.
# [2] = tested on: inducible nitric oxide synthase (iNOS); assay: Western blot analysis of iNOS (M1 marker) in LPS-stimulated glial cells; type: cell-based; conditions: LPS 100 ng/mL, 24 hours co-treatment, 0, 5, 10 and 20 μM; dose-dependent; primary rat glial cells (FIGS. 5a, b)
# Method: Mixed glial cell cultures were prepared from cerebral cortex of newborn Wistar rats (Rattus norvegicus), as previously described [Monti, B.; D'Alessandro, C.; Farini, V.; Bolognesi, A.; Polazzi, E.; Contestabile, A.; Stirpe, F.; Battelli, M. G. In vitro and in vivo toxicity of type 2 ribosome-inactivating proteins lanceolin and stenodactylin on glial and neuronal cells. Neurotoxicology 2007, 28, 637-644]. Briefly, brain tissue was cleaned from meninges, trypsinized for 15 minutes at 37° C. and, after mechanical dissociation, the cell suspension was washed and plated on poly-L-lysine (Sigma-Aldrich, St. Louis, Mo., USA, 10 μg/mL) coated flasks (75 cm^2). Mixed glial cells were cultured for 10-13 days in Basal Medium Eagle (BME, Life technologies Ltd, Paisley, UK) supplemented with 100 mL/L heat-inactivated FBS (Life technologies), 2 mmol/L glutamine (Sigma-Aldrich) and 100 μmol/L gentamicin sulfate (Sigma-Aldrich).
# Microglial cells were harvested from mixed glial cell cultures by mechanical shaking, resuspended in fresh medium without serum and plated on uncoated 35 mm Ø dishes at a density of 1.5×10^6 cells/1.5 mL medium/well for western blot analysis or on 96 wells at 1×10^5 cells/0.2 mL medium/well for MTT assay. Cells were allowed to adhere for 30 minutes and then washed to remove non-adhering cells. […]
SMILES,reduction of LPS-induced nitrite production [1],nitrite production in astrocyte cells [1],LPS-induced iNOS induction [2]
"CCNC1=NC(c2ccc(F)cc2)NC(=O)N1 (racemic) [Example 3, 6-(ethylamino)-4-(4-fluorophenyl)-3,4-dihydro-1,3,5-triazin-2(1H)-one]",higher potency,restore nitrite production to basal level,reduced
"CCCNC1=NC(c2ccc(F)cc2)NC(=O)N1 (stereo not drawn) [Example 6, 4-(4-fluorophenyl)-6-(propylamino)-3,4-dihydro-1,3,5-triazin-2(1H)-one]",higher potency,restore nitrite production to basal level,reduced
